# Tests used:
# [1] = test system: Human fibroblasts, Detroit 551 ATCC CCL III; test: Stimulation of protein synthesis in human fibroblast cultures (Lowry method); format: cell-based
# Procedure: (§1) The following have been used: • Human fibroblasts, Detroit 551 ATCC CCL III from LGC Promochem (Milan, Italy); • Human keratinocyte primary culture: HEKA, Cascade Biologics, cat. 005-5C. Test substances and concentrations
# (§2) The substances and concentrations tested are those reported below (on both fibroblasts and keratinocytes): • CA: 0.13, 0.66, 1.32, and 2.64 mg/ml • NAG: 0.1, 0.5, 1.0, and 2.0 mg/ml
# (§3) The method is identical to that already described for collagen and elastin with the difference that, following the addition of the test substances into the culture medium, the medium has been substituted daily for three days. Each sample has been tested in duplicate and the experiments have been repeated twice. The parameter of interest, i.e. protein synthesis, has been evaluated at 24, 48 and 72 hours on separate plates. Untreated cell cultures have been used as controls.
# (§4) Protein has been assayed using the Lowry method [Lowry et al. 1951] consisting of a Biuret reduction reaction envisaging the use of Folin-Ciocalteau reagent as chromophore, with a yellow to blue colour change and spectrophotometric measurement at 750 nm [Creighton et al. 1984; Sengupta et al. 1993].
# (§5) The protein content of the cultures in question has been obtained from comparison of their optical densities with a titration curve made using albumin as a protein standard.
# (§6) Evaluation of the effect of the substances tested, at the various concentrations and times, on cultures of both fibroblasts and keratinocytes has been expressed in both absolute terms (expressed protein production in mg/ml) and as percentage increase or decrease with respect to control cultures.
# (§7) The percentage difference increase or decrease of the effects exerted by CA and NAG, over various days and at the corresponding concentrations, have then been calculated, with evaluation of their potential statistical significance by means of the test Student “t” test.
# [2] = test system: Human keratinocyte primary culture: HEKA; test: Stimulation of protein synthesis in human keratinocyte cultures (Lowry method); format: cell-based; conditions: keratinocytes
# Procedure: as §1, §2, §3, §4, §5, §6, §7
compound,measurement,setting,value
"CC(=O)N[C@@H](C=O)[C@@H](O)[C@H](O)[C@H](O)CO [NAG, N-acetyl-2-amino-2 deoxyglucose]",Expr. prot. from NAG % incr. over baseline,"[1]; NAG 0.10 mg/ml, 24 hours",−14.6%
same,Expr. prot. from NAG (mg/ml) - Mean +/− st. dev.,"[1]; NAG 0.10 mg/ml, 24 hours",0.70 ± 0.11 mg/mL
same,Expr. prot. from NAG % incr. over baseline,"[1]; NAG 0.10 mg/ml, 48 hours",−7.8%
same,Expr. prot. from NAG (mg/ml) - Mean +/− st. dev.,"[1]; NAG 0.10 mg/ml, 48 hours",0.95 ± 0.08 mg/mL
same,Expr. prot. from NAG % incr. over baseline,"[1]; NAG 0.10 mg/ml, 72 hours",−6.4%
same,Expr. prot. from NAG (mg/ml) - Mean +/− st. dev.,"[1]; NAG 0.10 mg/ml, 72 hours",1.03 ± 0.18 mg/mL
same,Expr. prot. from NAG % incr. over baseline,"[1]; NAG 0.50 mg/ml, 24 hours",+31.7%
same,Expr. prot. from NAG (mg/ml) - Mean +/− st. dev.,"[1]; NAG 0.50 mg/ml, 24 hours",1.08 ± 0.29 mg/mL
same,Expr. prot. from NAG % incr. over baseline,"[1]; NAG 0.50 mg/ml, 48 hours",−9.7%
same,Expr. prot. from NAG (mg/ml) - Mean +/− st. dev.,"[1]; NAG 0.50 mg/ml, 48 hours",0.93 ± 0.08 mg/mL
same,Expr. prot. from NAG % incr. over baseline,"[1]; NAG 0.50 mg/ml, 72 hours",+3.6%
same,Expr. prot. from NAG (mg/ml) - Mean +/− st. dev.,"[1]; NAG 0.50 mg/ml, 72 hours",1.14 ± 0.16 mg/mL
same,Expr. prot. from NAG % incr. over baseline,"[1]; NAG 1.00 mg/ml, 24 hours",+35.4%
same,Expr. prot. from NAG (mg/ml) - Mean +/− st. dev.,"[1]; NAG 1.00 mg/ml, 24 hours",1.11 ± 0.22 mg/mL
same,Expr. prot. from NAG % incr. over baseline,"[1]; NAG 1.00 mg/ml, 48 hours",−21.4%
same,Expr. prot. from NAG (mg/ml) - Mean +/− st. dev.,"[1]; NAG 1.00 mg/ml, 48 hours",0.81 ± 0.11 mg/mL
same,Expr. prot. from NAG % incr. over baseline,"[1]; NAG 1.00 mg/ml, 72 hours",−5.5%
same,Expr. prot. from NAG (mg/ml) - Mean +/− st. dev.,"[1]; NAG 1.00 mg/ml, 72 hours",1.04 ± 0.20 mg/mL
same,Expr. prot. from NAG (mg/ml) - Mean +/− st. dev.,"[1]; NAG 2.00 mg/ml, 24 hours",1.24 ± 0.17 mg/mL
same,Expr. prot. from NAG % incr. over baseline,"[1]; NAG 2.00 mg/ml, 48 hours",+6.8%
same,Expr. prot. from NAG (mg/ml) - Mean +/− st. dev.,"[1]; NAG 2.00 mg/ml, 48 hours",1.10 ± 0.20 mg/mL
same,Expr. prot. from NAG % incr. over baseline,"[1]; NAG 2.00 mg/ml, 72 hours",+0.91%
same,Expr. prot. from NAG (mg/ml) - Mean +/− st. dev.,"[1]; NAG 2.00 mg/ml, 72 hours",1.11 ± 0.19 mg/mL
same,Expr. prot. from NAG % incr. over baseline,"[2]; NAG 0.10 mg/ml, 24 hours",−34.7%
same,Expr. prot. from NAG (mg/ml) - Mean +/− st. dev.,"[2]; NAG 0.10 mg/ml, 24 hours",0.16 ± 0.037 mg/mL
same,Expr. prot. from NAG (mg/ml) - Mean +/− st. dev.,"[2]; NAG 0.10 mg/ml, 48 hours",0.42 ± 0.15 mg/mL
same,Expr. prot. from NAG % incr. over baseline,"[2]; NAG 0.10 mg/ml, 72 hours",+15.5%
same,Expr. prot. from NAG (mg/ml) - Mean +/− st. dev.,"[2]; NAG 0.10 mg/ml, 72 hours",0.67 ± 0.09 mg/mL
same,Expr. prot. from NAG % incr. over baseline,"[2]; NAG 0.50 mg/ml, 24 hours",−10.2%
same,Expr. prot. from NAG (mg/ml) - Mean +/− st. dev.,"[2]; NAG 0.50 mg/ml, 24 hours",0.22 ± 0.039 mg/mL
same,Expr. prot. from NAG (mg/ml) - Mean +/− st. dev.,"[2]; NAG 0.50 mg/ml, 48 hours",0.40 ± 0.12 mg/mL
same,Expr. prot. from NAG % incr. over baseline,"[2]; NAG 0.50 mg/ml, 72 hours",+10.3%
same,Expr. prot. from NAG (mg/ml) - Mean +/− st. dev.,"[2]; NAG 0.50 mg/ml, 72 hours",0.64 ± 0.12 mg/mL
same,Expr. prot. from NAG % incr. over baseline,"[2]; NAG 1.00 mg/ml, 24 hours",+44.9%
same,Expr. prot. from NAG (mg/ml) - Mean +/− st. dev.,"[2]; NAG 1.00 mg/ml, 24 hours",0.36 ± 0.047 mg/mL
same,Expr. prot. from NAG % incr. over baseline,"[2]; NAG 1.00 mg/ml, 48 hours",+41.2%
same,Expr. prot. from NAG (mg/ml) - Mean +/− st. dev.,"[2]; NAG 1.00 mg/ml, 48 hours",0.48 ± 0.11 mg/mL
same,Expr. prot. from NAG % incr. over baseline,"[2]; NAG 1.00 mg/ml, 72 hours",+20.7%
same,Expr. prot. from NAG (mg/ml) - Mean +/− st. dev.,"[2]; NAG 1.00 mg/ml, 72 hours",0.70 ± 0.08 mg/mL
same,Expr. prot. from NAG (mg/ml) - Mean +/− st. dev.,"[2]; NAG 2.00 mg/ml, 24 hours",0.38 ± 0.050 mg/mL
same,Expr. prot. from NAG % incr. over baseline,"[2]; NAG 2.00 mg/ml, 48 hours",+38.2%
same,Expr. prot. from NAG (mg/ml) - Mean +/− st. dev.,"[2]; NAG 2.00 mg/ml, 48 hours",0.47 ± 0.12 mg/mL
same,Expr. prot. from NAG % incr. over baseline,"[2]; NAG 2.00 mg/ml, 72 hours",+43.1%
same,Expr. prot. from NAG (mg/ml) - Mean +/− st. dev.,"[2]; NAG 2.00 mg/ml, 72 hours",0.83 ± 0.070 mg/mL

# — patent publication US20100028395A1, “COMPOSITIONS CONTAINING N-ACETYLGLUCOSAMINE FOR USE IN DERMO-COSMETOLOGY AND AESTHETIC MEDICINE” (ROTTAPHARM S.P.A., priority 2007, published 2010)
